Values of other authors, collected in patent US20110250274A1, “ESTRIOL FORMULATIONS” (priority 2008, published 2011).

Key:
[1] = oral administration
[2] = compared with the other main human estrogens
[3] = intravaginal route, avoiding enterohepatic circulation

In the case of `C[C@]12CC[C@@H]3c4ccc(O)cc4CC[C@H]3[C@@H]1C[C@@H](O)[C@@H]2O` [Estriol, estra-1,3,5(10)-triene-3,16a,17β-triol], the “share of the administered oral dose rapidly glucuro-conjugated by the liver” value [1] is given as ~90%, the “share of the oral dose administered that reaches the systemic circulation” value [1] is given as 1-2% and the mitogenic activity [2] is given as “no mitogenic activity”. For the same molecule, the “plasma levels of free estriol” value [3] was 20%.
